Source: ChEMBL document CHEMBL1156884, “Improvement of physiochemical properties of the tetrahydroazepinoindole series of farnesoid X receptor (FXR) agonists: beneficial modulation of lipids in primates” (J Med Chem, 2010)
Converted amounts (≈) assume the structure as drawn.

Legend:
[1] = Cmax in Sprague-Dawley rat at 3 mg/kg, po; format: ADME, organism-based; design: dose 3 mg/kg, route oral; details: in vivo
[2] = Equilibrium solubility in 0.5% methylcellulose/2% Tween-80 in water; format: physicochemical
[3] = Tmax in Sprague-Dawley rat 3 mg/kg, po; format: ADME, organism-based; design: dose 3 mg/kg, route oral; details: in vivo
[4] = Oral bioavailability in Sprague-Dawley rat 3 mg/kg; format: ADME, organism-based; details: in vivo
[5] = Tmax in C57 mouse at 3 mg/kg, po; format: ADME, organism-based; design: dose 3 mg/kg, route oral; details: in vivo
[6] = AUC (0 to infinity) in C57 mouse at 3 mg/kg, po; format: ADME, organism-based; design: time infinity, dose 3 mg/kg, route oral; details: plasma
[7] = AUC (0 to infinity) in Sprague-Dawley rat at 3 mg/kg, po; format: ADME, organism-based; design: time infinity, dose 3 mg/kg, route oral; details: plasma
[8] = AUC (0 to infinity) in C57 mouse at 3 mg/kg, iv; format: ADME, organism-based; design: time infinity, dose 3 mg/kg, route intravenous; details: plasma
[9] = (§1) AUC (0 to infinity) in Sprague-Dawley rat at 3 mg/kg, iv; format: ADME, organism-based, Plasma; design: time infinity, dose 3 mg/kg, route intravenous; details: Sprague-Dawley, plasma
[10] = Cmax in C57 mouse at 3 mg/kg, po; format: ADME, organism-based; design: dose 3 mg/kg, route oral; details: in vivo
[11] = AUC (0 to infinity) in C57 mouse at 30 mg/kg, po; format: ADME, organism-based; design: time infinity, dose 30 mg/kg, route oral; details: plasma
[12] = Oral bioavailability in C57 mouse at 30 mg/kg; format: ADME, organism-based; details: in vivo
[13] = tested on: Rattus norvegicus; test: AUC (0 to infinity) in Sprague-Dawley rat at 30 mg/kg, po; format: ADME, organism-based, Plasma; design: time infinity, dose 30 mg/kg, route oral; details: in vivo
[14] = Tmax in C57 mouse at 30 mg/kg, po; format: ADME, organism-based; design: dose 30 mg/kg, route oral; details: in vivo
[15] = Cmax in Sprague-Dawley rat at 30 mg/kg, po; format: ADME, organism-based; design: dose 30 mg/kg, route oral; details: in vivo
[16] = Cmax in C57 mouse at 30 mg/kg, po; format: ADME, organism-based; design: dose 30 mg/kg, route oral; details: in vivo
[17] = tested on: Rattus norvegicus; test: Oral bioavailability in Sprague-Dawley rat at 30 mg/kg; format: ADME, organism-based; details: in vivo
[18] = tested on: Rattus norvegicus; test: as §1; format: ADME, organism-based, Plasma; design: time infinity, dose 3 mg/kg, route intravenous; details: in vivo
[19] = Tmax in Sprague-Dawley rat 30 mg/kg, po; format: ADME, organism-based; design: dose 30 mg/kg, route oral; details: in vivo

solubility thermodynamic [2] [µg/mL]	Compound	other results
250 (≈ 444 µM)	CC(C)OC(=O)C1=CN(C(=O)c2ccc(OCCCN3CCOCC3)cc2)CC(C)(C)c2c1[nH]c1cc(F)ccc21	Cmax [1]: 68 ng/mL; Tmax [3]: 2 h; bioavailability [4]: 38%; Tmax [5]: 1 h; AUC(0-inf) [6]: 370 ng·h/mL; AUC(0-inf) [7]: 361 ng·h/mL; AUC(0-inf) [8]: 1720 ng·h/mL; AUC(0-inf) [9]: 960 ng·h/mL; Cmax [10]: 81 ng/mL
5920	CC(C)OC(=O)C1=CN(C(=O)c2ccc(OCCCN3CCOCC3)cc2)CC(C)(C)c2c1[nH]c1cc(F)ccc21.Cl	–
> 6000	CC(C)OC(=O)C1=CN(C(=O)c2ccc(OCCN3CCOCC3)cc2)CC(C)(C)c2c1[nH]c1cc(F)ccc21.Cl	–
1140 (≈ 2040 µM)	CC(C)OC(=O)C1=CN(C(=O)c2ccc(OCCCN3CCN(C)CC3)cc2)CC(C)(C)c2c1[nH]c1ccccc21	–
24 (≈ 46.5 µM)	CC(C)OC(=O)C1=CN(C(=O)c2ccc(OCCN3CCCC3)cc2)CC(C)(C)c2c1[nH]c1ccccc21	–
280 (≈ 509 µM)	CC(C)OC(=O)C1=CN(C(=O)c2ccc(OCCN3CCOCC3)cc2)CC(C)(C)c2c1[nH]c1cc(F)ccc21	AUC(0-inf) [11]: 6700 ng·h/mL; bioavailability [12]: 53%; AUC [13]: 193 ng·h/mL; Tmax [14]: 1 h; Cmax [15]: 35 ng/mL; AUC(0-inf) [8]: 1260 ng·h/mL; Cmax [16]: 1130 ng/mL; F [17]: 25%; AUC [18]: 781 ng·h/mL; Tmax [19]: 1.7 h
200 (≈ 367 µM)	CC(C)OC(=O)C1=CN(C(=O)c2ccc(OCCCN3CCOCC3)cc2)CC(C)(C)c2c1[nH]c1ccccc21	–
118 (≈ 216 µM)	CC(C)OC(=O)C1=CN(C(=O)c2cccc(OCCCN3CCOCC3)c2)CC(C)(C)c2c1[nH]c1ccccc21	–
111 (≈ 210 µM)	CC(C)OC(=O)C1=CN(C(=O)c2cccc(OCCN3CCCCC3)c2)CC(C)(C)c2c1[nH]c1ccccc21	–
2330 (≈ 4400 µM)	CC(C)OC(=O)C1=CN(C(=O)c2ccc(OCCCN3CCCC3)cc2)CC(C)(C)c2c1[nH]c1ccccc21	–
1220 (≈ 2240 µM)	CC(C)OC(=O)C1=CN(C(=O)c2ccc(OCCCN3CCCCC3)cc2)CC(C)(C)c2c1[nH]c1ccccc21	–
536 (≈ 1090 µM)	CC(C)OC(=O)C1=CN(C(=O)c2cccc(OCCN(C)C)c2)CC(C)(C)c2c1[nH]c1ccccc21	–
1740 (≈ 3110 µM)	CC(C)OC(=O)C1=CN(C(=O)c2cccc(OCCCN3CCN(C)CC3)c2)CC(C)(C)c2c1[nH]c1ccccc21	–
80 (≈ 150 µM)	CC(C)OC(=O)C1=CN(C(=O)c2ccc(OCCN3CCOCC3)cc2)CC(C)(C)c2c1[nH]c1ccccc21	–
82 (≈ 151 µM)	CC(C)OC(=O)C1=CN(C(=O)c2ccc(OCCN3CCN(C)CC3)cc2)CC(C)(C)c2c1[nH]c1ccccc21	–
245 (≈ 488 µM)	CC(C)OC(=O)C1=CN(C(=O)c2ccc(CN3CCOCC3)cc2)CC(C)(C)c2c1[nH]c1ccccc21	–
2470 (≈ 4900 µM)	CC(C)OC(=O)C1=CN(C(=O)c2ccc(OCCCN(C)C)cc2)CC(C)(C)c2c1[nH]c1ccccc21	–
380 (≈ 731 µM)	CC(C)OC(=O)C1=CN(C(=O)c2ccc(CN3CCOCC3)cc2)CC(C)(C)c2c1[nH]c1cc(F)ccc21	–
80 (≈ 151 µM)	CC(C)OC(=O)C1=CN(C(=O)c2ccc(OCCN3CCCCC3)cc2)CC(C)(C)c2c1[nH]c1ccccc21	–
1040 (≈ 1920 µM)	CC(C)OC(=O)C1=CN(C(=O)c2cccc(OCCCN3CCCCC3)c2)CC(C)(C)c2c1[nH]c1ccccc21	–
17 (≈ 34.7 µM)	CC(C)OC(=O)C1=CN(C(=O)c2ccc(OCCN(C)C)cc2)CC(C)(C)c2c1[nH]c1ccccc21	–
155 (≈ 292 µM)	CC(C)OC(=O)C1=CN(C(=O)c2cccc(OCCN3CCOCC3)c2)CC(C)(C)c2c1[nH]c1ccccc21	–
